Experimental data from patent publication US20090061009A1, “Composition and Method of Treatment of Bacterial Infections” (priority 2007, published 2009).
Counter-ions that a name gives are not always drawn.

What was measured:
MAC = settings: 100 mg/kg IM five days a week for four weeks; cited from earlier work
glioblastoma = test: Glioblastoma model, survival; format: in vivo; settings: day 100 after tumor inoculation, same dose and schedule
[1] = system: Mycobacterium tuberculosis strain H37Rv (ATCC 27294); test: Tuberculosis model in BALB/c mice; format: in vivo; settings: for Survival rate, % D14: day 14; for Survival rate, % D28 / Bacterial count in lungs, log CFU D28: day 28; for Bacterial count in lungs, log CFU D28: 10.06 ± 0.304 at D1
E. coli ATCC 25922 = test: Sepsis (septicemia) model in mice; format: in vivo
Description: Sepsis (septicemia) model: Escherichia coli O157 was chosen as a model infection being one of the most common nosocomial pathogens. Female BALB/C mice were infected by the intraperitoneal injection of 2.5×10^8 cells (LD90). Treatment started 2 hours post bacterial inoculation
E. coli ATCC 25922 was stored at −80° C. until use in this study. The bacterium was transferred onto Trypticase Soy Agar (TSA) plates and incubated for 18 h at 37° C. A suspension of the bacterium was prepared in PBS and added to sterile 5% hog mucin. An aliquot of the suspension was added to 5% hog gastric mucin to obtain the required concentration of inoculum (3.5×10^6 CFU/mL). Each mouse was inoculated with 0.5 mL of the appropriate inoculum preparation by IP injection. 2 hours later mice were treated with a single injection of the appropriate concentration of Gentamicin sulfate in dose 10 mg/kg (calculated by base).

[2] = BALB/c mice, 100 mg/kg IP 2/week, cumulative 800 mg/kg SM base
[3] = BALB/c mice, 200 mg/kg IP 5/week, cumulative 4000 mg/kg SM base

[H]/N=C(/N)N[C@H]1[C@H](O)[C@@H](O)[C@H](O[C@@H]2O[C@@H](C)[C@](O)(C=O)[C@H]2O[C@@H]2O[C@@H](CO)[C@H](O)[C@@H](O)[C@@H]2NC)[C@@H](N/C(N)=N\[H])[C@@H]1O [Streptomycin]
bacterial counts of MAC from spleen, lungs and liver (MAC): significant reduction

COc1cccc2c1C(=O)c1c(O)c3c(c(O)c1C2=O)C[C@@](O)(C(=O)CO)C[C@@H]3O[C@H]1C[C@H](N)[C@H](O)[C@H](C)O1 [Doxorubicin in solution, Doxorubicin]
survival rate (glioblastoma): 0%

[H]/N=C(/N)N[C@H]1[C@H](O)[C@@H](O)[C@H](O[C@@H]2O[C@@H](C)[C@](O)(C=O)[C@H]2O[C@@H]2O[C@@H](CO)[C@H](O)[C@@H](O)[C@@H]2NC)[C@@H](N/C(N)=N\[H])[C@@H]1O [SM USP solution, Streptomycin sulfate]
survival rate ([1]; 800 mg cumulative dose of SM): 58% | Survival rate, % D14 [1, 2]: 83% | Survival rate, % D28 [1, 2]: 58% | Bacterial count in lungs, log CFU D28 ([1]; BALB/c mice, 100 mg/kg IP 2/week): 8.37 ± 0.367 log CFU | Bacterial count in lungs, log CFU D56 ([1]; BALB/c mice, 200 mg/kg IP 5/week for 28 days, day 56): 8.86 ± 0.18 log CFU | Survival rate, % D14 [1, 3]: 92% | Survival rate, % D28 [1, 3]: 92% | Bacterial count in lungs, log CFU D28 ([1]; BALB/c mice, 200 mg/kg IP 5/week): 7.57 ± 0.268 log CFU | survival rate ([1]; positive control, cumulative 4000 mg SM): 92%

Gentamicin sulfate [Gentamicin sulfate solution]
Day of death after inoculation: 2 (number of deaths) (E. coli ATCC 25922; 10 mg/kg single injection, day 2): 3 | Day of death after inoculation: 3 (number of deaths) (E. coli ATCC 25922; 10 mg/kg single injection, day 3): 1 | Day of death after inoculation: 4 (number of deaths) (E. coli ATCC 25922; 10 mg/kg single injection, day 4): 1 | Survival rates (E. coli ATCC 25922; E.Coli induced septicemia in mice, untreated 11%): 50% | No. dead/No. treated (E. coli ATCC 25922; mice, 1.8 × 10^6 E. coli per mouse IP, single injection 10 mg/kg (as base) 2 hours later, observed six days): 5/10
